Laboratory results from patent US20260242359A1, “IRHOM2 INHIBITORS AND USES THEREOF” (NEW YORK SOCIETY FOR THE RELIEF OF THE RUPTURED AND …, priority 2023, published 2026).

Key:
[1] = test system: TNFα release from LPS-stimulated THP-1 cells (iRhom2/ADAM17-dependent); experiment: Primary screen (Example 1a): LPS-stimulated TNFα release from THP-1 cells, HTRF; format: cell-based; conditions: Homo sapiens, LPS 100 ng/mL, 3 h, normalized against 50 μM Batimastat, read-out: Primary Screen XC50 TNFα
Protocol: Two separate screens to identify novel small molecule inhibitors of iRhom2/ADAM17 activity were developed. […] Therefore, the primary screen for small molecule inhibitors of iRhom2/ADAM17 was a screen for inhibitors that blocked the release of TNFα from LPS-stimulated THP-1 human myeloid cells, a process that depends on iRhom2 and ADAM17. […]
THP-1 cells were plated in 384 or 1,536 wells and transferred on the ultra-high throughput screening (uHTS) platform Mark III, and TNFα shedding was initiated by LPS stimulation of THP-1 cells. The extent of released TNFα was detected with the corresponding HTRF antibodies labeled with europium cryptate (donor) and d2 (acceptor). […]
7.5 nL compound and controls in DMSO [10 μM in assay; 0.25% DMSO in 3 μL Assay] were dissolved in 2 μL cell suspension [2.4E6/mL; 4800 cells/well; culture w/o PenStrep], pre-incubated at 37° C., 5% CO2, for 15 min with 1 μL LPS [100 ng/mL in 3 μL assay]. […] After an incubation at room temperature for 2 h or longer, the HTRF readout was performed. […]

[2] = test system: PMA-stimulated TGFα release from HEK-293 cells (substrate of iRhom1/ADAM17 and iRhom2/ADAM17); experiment: Counter screen (Example 4a): PMA-stimulated TGFα release from HEK-293 cells, AP readout; format: cell-based; conditions: Homo sapiens, HEK293, HEK-293 cells expressing TGFα-AP, PMA 100 ng/mL, 2 h, read-out: Counter Screen XC50 TGFα
Protocol: A tertiary counterscreen was also performed to monitor the release of TGFα, which is a substrate of iRhom1/ADAM17 and iRhom2/ADAM17, so its release should not be blocked by an iRhom2-selective inhibitor (Maretzky T et al. (July 2013), “iRhom2 controls the substrate selectivity of stimulated ADAM117-dependent ectodomain shedding”, PNAS 110(28): 11433-11438; and Li X et al. (May 2015), “iRhoms 1 and 2 are essential upstream regulators of ADAM17-dependent EGFR signaling”, PNAS 112(19): 6080-6085).
First, expression plasmids for alkaline phosphatase (AP)-fused KL2 and TGFα were designed and generated through gene synthesis followed by subcloning into the pcDNA3.1(+)/Hygro expression vector. […] During cell culturing, cell density and viability were monitored to ensure optimal conditions for the transfections. After PMA stimulation, AP-coupled KL2 or TGFα were detected by measurement of AP activity in the supernatant. […]
After electroporation, cells were further cultured in presence of selection antibiotics, hygromycin B, to generate stably transfected polyclonal cell pools. […] Final assay conditions were determined for the selected pools. […]
60 μL of cells (20,000/well) were added to a sterile 384-well plate. […] The reaction was stopped by addition of 20 μL of NaOH (1 M final conc.) and the absorbance of pNP was measured at 405 nm.

SMILES | IC50 [1] [µM] | IC50 [2] [µM]
CCOC(=O)c1ccc(Nc2nc3nonc3n3nnnc23)cc1 [Compound 2] | < 0.802 | 9.91
CCC(=O)NCCc1c(/C=C2/C(=O)NC(=O)N(c3ccc(C)cc3C)C2=O)[nH]c2ccccc12 [Compound 1] | < 0.802 | 12.6
